Results taken from US20260158009A1 (GENZYME CORPORATION, priority 2023, published 2026).

Legend:
U937 cells = experiment: Cellular assay in U937 cells: activity of RIPK1 inhibitors on TNFα/zVAD.fmk-induced cell death (necroptosis), CellTiter 96 AQueous (MTS) readout; type: cell-based; conditions: Homo sapiens, U-937
Method in brief: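 Necroptosis was measured by viable-cell MTS reduction (4 h, absorbance 490 nm) after overnight (18–24 h) 37° C culture. Cell suspensions of U937 cells carried TNFα (100 ng/ml) plus zVAD.fmk (50 μM) before compound was added. A 10-point curve (10 μM–0.26 nM or 1 μM–0.07 nM) was run in duplicate, normalised to the control lacking TNFα/zVAD.fmk.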

[1] = target: T1, hRIPK1 (aa 1-375) fusion protein (Homo sapiens, UniProt Q13546); experiment: ADP-Glo kinase assay: catalytic activity of RIPK1 (autophosphorylation, conversion of ATP to ADP); type: biochemical
T1 construct: hRIPK1 (aa 1-375) fusion protein
T1 sequence (Q13546 1-375): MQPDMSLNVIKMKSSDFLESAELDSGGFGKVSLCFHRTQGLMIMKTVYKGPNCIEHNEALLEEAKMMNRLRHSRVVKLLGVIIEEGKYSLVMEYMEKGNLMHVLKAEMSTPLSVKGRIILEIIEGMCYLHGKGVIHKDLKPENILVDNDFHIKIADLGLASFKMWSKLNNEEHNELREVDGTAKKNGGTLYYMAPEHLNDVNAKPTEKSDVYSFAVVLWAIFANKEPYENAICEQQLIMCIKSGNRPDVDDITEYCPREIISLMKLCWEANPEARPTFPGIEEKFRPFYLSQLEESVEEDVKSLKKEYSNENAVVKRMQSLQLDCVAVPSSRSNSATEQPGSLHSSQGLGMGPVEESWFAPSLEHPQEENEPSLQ
Method in brief: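 hRIPK1 (aa 1-375) fusion protein (3.6 μg/ml final) was preincubated 30 min at rt with compound (33300-1.69 nM, 1% DMSO), then 50 μM ATP was added for 240 min at rt. ADP from autophosphorylation was measured by ADP-Glo luminescence and curves fitted by nonlinear regression.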

IC50 [1] [nM] | Structure (SMILES) | IC50 (U937 cells) [nM]
995 | Cc1ccc([C@@H]2CCON2C(=O)[C@H]2CC[C@H](Cc3ccc(C)nn3)CC2)cn1 [compound 387, trans-[4-[(6-methylpyridazin-3-yl)methyl]cyclohexyl]-[(3S)-3-(6-methylpyridin-3-yl)-1,2-oxazolidin-2-yl]methanone] | 1880
38 | Cc1ncc(F)cc1C[C@H]1CC[C@H](C(=O)N2OCC[C@H]2c2cncc(F)c2)CC1 [compound 178, trans-[4-[(5-fluoro-2-methyl-3-pyridyl)methyl]cyclohexyl]-[(3S)-3-(5-fluoro-3-pyridyl)isoxazolidin-2-yl]methanone] | 6
24 | Cc1cnc([C@@H]2CCON2C(=O)[C@H]2CC[C@H](Cc3cc(C)ncc3Cl)CC2)cn1 [compound 385, trans-[4-[(5-chloro-2-methylpyridin-4-yl)methyl]cyclohexyl]-[(3S)-3-(5-methylpyrazin-2-yl)-1,2-oxazolidin-2-yl]methanone] | 3
26 | Cc1ccc([C@@H]2CCON2C(=O)[C@H]2CC[C@H](Cc3cc(-n4ccnc4C)ncn3)CC2)cc1 [compound 136, trans-[4-[[6-(2-methylimidazol-1-yl)pyrimidin-4-yl]methyl]cyclohexyl]-[(3S)-3-(p-tolyl)isoxazolidin-2-yl]methanone] | 26
25 | Cc1cnc([C@@H]2CCON2C(=O)[C@H]2CC[C@H](Cc3cc(C)ncc3C)CC2)cn1 [compound 339, trans-[4-[(2,5-dimethylpyridin-4-yl)methyl]cyclohexyl]-[(3S)-3-(5-methylpyrazin-2-yl)-1,2-oxazolidin-2-yl]methanone] | 16
27 | Cc1nc(C[C@H]2CC[C@H](C(=O)N3OCC[C@H]3c3cc(F)cc(C#N)c3)CC2)cs1 [compound 239, trans-3-fluoro-5-[(3S)-2-[4-[(2-methylthiazol-4-yl)methyl]cyclohexanecarbonyl]isoxazolidin-3-yl]benzonitrile] | 5
18 | Cn1nccc1-c1cc(F)cc(C[C@H]2CC[C@H](C(=O)N3OCC[C@H]3c3cnccn3)CC2)c1 [compound 211, trans-[4-[[3-fluoro-5-(2-methylpyrazol-3-yl)phenyl]methyl]cyclohexyl]-[(3S)-3-pyrazin-2-ylisoxazolidin-2-yl]methanone] | 20
22 | N#Cc1cnc2ccn(C[C@H]3CC[C@H](C(=O)N4OCC[C@H]4c4cncc(F)c4)CC3)c2c1 [compound 3, trans-1-((4-((S)-3-(5-fluoropyridin-3-yl)isoxazolidine-2-carbonyl)cyclohexyl)methyl)-1H-pyrrolo[3,2-b]pyridine-6-carbonitrile] | 18
44 | Cc1ccc([C@@H]2CCON2C(=O)[C@H]2CC[C@H](Cc3cnc4cnn(C)c4c3)CC2)cn1 [compound 329, trans-[4-[(1-methylpyrazolo[4,3-b]pyridin-6-yl)methyl]cyclohexyl]-[(3S)-3-(6-methylpyridin-3-yl)-1,2-oxazolidin-2-yl]methanone] | 82
38 | N#Cc1cc(F)cc([C@@H]2CCON2C(=O)[C@H]2CC[C@H](Cc3ccc4ncnn4c3)CC2)c1 [compound 142, trans-3-fluoro-5-[(3S)-2-[4-([1,2,4]triazolo[1,5-a]pyridin-6-ylmethyl)cyclohexanecarbonyl]isoxazolidin-3-yl]benzonitrile] | 4
131 | NC(=O)c1ccc2cnn(C[C@H]3CC[C@H](C(=O)N4OCC[C@H]4c4ccccn4)CC3)c2c1 [Compound 230, trans-1-[[4-[(3S)-3-(2-pyridyl)isoxazolidine-2-carbonyl]cyclohexyl]methyl]indazole-6-carboxamide] | 376
7 | Cc1ccc(C[C@H]2CC[C@H](C(=O)N3OCC[C@H]3c3cc(F)cc(C#N)c3)CC2)nn1 [compound 303, trans-3-fluoro-5-[(3S)-2-[4-[(6-methylpyridazin-3-yl)methyl]cyclohexanecarbonyl]isoxazolidin-3-yl]benzonitrile] | 16
44 | Cc1cnc([C@@H]2CCON2C(=O)[C@H]2CC[C@H](Cc3ccnn3C)CC2)cn1 [compound 395, trans-[(3S)-3-(5-methylpyrazin-2-yl)-1,2-oxazolidin-2-yl]-[4-[(2-methylpyrazol-3-yl)methyl]cyclohexyl]methanone] | 45
20 | N#Cc1ccc2cnn(C[C@H]3CC[C@H](C(=O)N4OCC[C@H]4c4ccccn4)CC3)c2c1 [compound 215, trans-1-[[4-[(3S)-3-(2-pyridyl)isoxazolidine-2-carbonyl]cyclohexyl]methyl]indazole-6-carbonitrile] | 7

The remaining lines, values behind:

Structure (SMILES) | IC50 [1] [nM] | IC50 (U937 cells) [nM]
Cc1c(F)cc([C@@H]2CCON2C(=O)[C@H]2CC[C@H](Cc3cncc(C#N)c3C)CC2)cc1C#N [compound 287, trans-5-[[4-[(3S)-3-(3-cyano-5-fluoro-4-methyl-phenyl)isoxazolidine-2-carbonyl]cyclohexyl]methyl]-4-methyl-pyridine-3-carbonitrile] | 2 | 1
Cc1cc(C)n(C[C@H]2CC[C@H](C(=O)N3OCC[C@H]3c3cc(F)cc(C#N)c3)CC2)n1 [compound 119, trans-3-((S)-2-(4-((3,5-dimethyl-1H-pyrazol-1-yl)methyl)cyclohexane-1-carbonyl)isoxazolidin-3-yl)-5-fluorobenzonitrile] | 27 | 54
N#Cc1cc(F)cc([C@@H]2CCON2C(=O)[C@H]2CC[C@H](Cn3cnc4ccc(F)cc43)CC2)c1 [compound 112, trans-3-fluoro-5-((S)-2-(4-((6-fluoro-1H-benzo[d]imidazol-1-yl)methyl)cyclohexane-1-carbonyl)isoxazolidin-3-yl)benzonitrile] | 23 | 7
Cc1cncc([C@@H]2CCON2C(=O)[C@H]2CC[C@H](Cc3ccc(F)c(C(N)=O)c3)CC2)n1 [compound 299, trans-2-fluoro-5-[[4-[(3S)-3-(6-methylpyrazin-2-yl)isoxazolidine-2-carbonyl]cyclohexyl]methyl]benzamide] | 14 | 19
N#Cc1cncc([C@@H]2CCON2C(=O)[C@H]2CC[C@H](Cn3cnc4cc(F)c(C#N)cc43)CC2)c1 [compound 64, trans-1-((4-((S)-3-(5-cyanopyridin-3-yl)isoxazolidine-2-carbonyl)cyclohexyl)methyl)-5-fluoro-1H-benzo[d]imidazole-6-carbonitrile] | 20 | 47
Cc1ccc([C@@H]2CCON2C(=O)[C@]2(C)CC[C@@H](Cc3cc(C)c4nc(C)nn4c3)CC2)cn1 [compound 400, trans-[4-[(2,8-dimethyl-[1,2,4]triazolo[1,5-a]pyridin-6-yl)methyl]-1-methylcyclohexyl]-[(3S)-(6-methylpyridin-3-yl)-1,2-oxazolidin-2-yl]methanone] | 19 | 9
Cc1nn(C[C@H]2CC[C@H](C(=O)N3OCC[C@H]3c3cc(F)cc(C#N)c3)CC2)c2cc(C#N)c(F)cc12 [compound 85, trans-1-((4-((S)-3-(3-cyano-5-fluorophenyl)isoxazolidine-2-carbonyl)cyclohexyl)methyl)-5-fluoro-3-methyl-1H-indazole-6-carbonitrile] | 21 | 3
N#Cc1cc(F)cc([C@@H]2CCON2C(=O)[C@H]2CC[C@H](Cn3ccc4ncc(C#N)cc43)CC2)c1 [compound 2, trans-1-((4-((S)-3-(3-cyano-5-fluorophenyl)isoxazolidine-2-carbonyl)cyclohexyl)methyl)-1H-pyrrolo[3,2-b]pyridine-6-carbonitrile] | 33 | 9
Cc1cc([C@@H]2CCON2C(=O)[C@H]2CC[C@H](Cn3cc4c(F)cc(C#N)cc4n3)CC2)co1 [compound 42, trans-4-fluoro-2-((4-((S)-3-(5-methylfuran-3-yl)isoxazolidine-2-carbonyl)cyclohexyl)methyl)-2H-indazole-6-carbonitrile] | 39 | 119
N#Cc1cc(F)cc([C@@H]2CCON2C(=O)[C@H]2CC[C@H](Cn3cnc4c(F)cc(C#N)cc43)CC2)c1 [compound 36, trans-1-((4-((S)-3-(3-cyano-5-fluorophenyl)isoxazolidine-2-carbonyl)cyclohexyl)methyl)-4-fluoro-1H-benzo[d]imidazole-6-carbonitrile] | 23 | 20
N#Cc1cc(F)cc([C@@H]2CCON2C(=O)[C@H]2CC[C@H](Cn3cnc4cc(C#N)c(F)cc43)CC2)c1 [compound 11, trans-1-((4-((S)-3-(3-cyano-5-fluorophenyl)isoxazolidine-2-carbonyl)cyclohexyl)methyl)-6-fluoro-1H-benzo[d]imidazole-5-carbonitrile] | 59 | 38
